In one assay the test system is A549. Kind of assay: Cytotoxicity against human A549 cells after 24 hrs by Alamar Blue assay. It counts as functional, cell-based. As to conditions: A549, 24 h. (Resazurin is reduced to fluorescent resorufin, in cell work by metabolically active cells.)
The nature of assay [1]: Inhibition of rat RabGGTase using [3H]GGPP as substrate after 30 mins by scintillation counter.
For a further assay, the system named is HCT-116. Kind of assay: Cytotoxicity against human HCT116 cells after 24 hrs by Alamar Blue assay. It counts as functional, cell-based. As to conditions: HCT-116, 24 h.
Assay [2] is described as follows: Inhibition of FTase using NBD-GPP as substrate after 10 mins by solution based fluorometric assay.
A further assay relates to HeLa. Kind of assay: Cytotoxicity against human HeLa cells after 24 hrs by Alamar Blue assay. Type of assay: functional, cell-based.
The nature of assay [3]: Inhibition of GGTase 1 using NBD-FPP as substrate after 10 mins by solution based fluorometric assay.
The subject of a further assay is DU-145. As to the kind of experiment: Cytotoxicity against human DU145 cells after 24 hrs by Alamar Blue assay. It counts as functional, cell-based. As to conditions: DU-145, 24 h.
A further assay concerns A2780. As to the kind of experiment: Cytotoxicity against human A2780 cells after 24 hrs by Alamar Blue assay. Type of assay: functional, cell-based. As to conditions: A2780, 24 h.
The nature of assay [4]: Inhibition of RabGGTase using NBD-FPP as substrate after 5 mins by fluorometric assay.
Assay [5] is described as follows: Inhibition of RabGGTase in human HeLa cells after 6 hrs by reprenylation assay. Type of assay: cell-based.
The test system of another assay is PBMC. Kind of assay: Cytotoxicity against human PBMC cells after 24 hrs by Alamar Blue assay. Type of assay: cell-based.
Assay [6] can be described thus: Inhibition of RabGGTase using [3H]GGPP as substrate after 1 hr by scintillation proximity assay. In general terms: SPA uses beads or plates that emit light when radiolabelled molecules are held near them.

Data on 2 compounds can be found in ChEMBL document CHEMBL2169825, “Development of selective, potent RabGGTase inhibitors” (J Med Chem, 2012).

Each structure is given as a SMILES string.

In general, IC50 refers to the concentration at which inhibition is half-maximal. A lower IC50 goes with inhibition by little substance. For the compound `COc1ccc(S(=O)(=O)N2Cc3cc(C#N)ccc3N(Cc3cncn3C)C[C@H]2Cc2ccccc2)cc1`, the IC50 is 99 nM with A549; 21 nM in [1]; 63 nM in the assay on HCT-116; 6 nM in assay [2]; 101 nM with HeLa; above 99500 nM in [3]. The IC50 in the assay with DU-145 was 70 nM; in the assay on A2780, 43 nM; in [4], 724 nM; in assay [5] it was 74 nM; with PBMC, above 10000 nM; in [6], 6.4 nM.
With `CCCCOc1ccc(C[C@@H]2CN(Cc3cncn3C)c3ccc(C#N)cc3CN2S(=O)(=O)c2ccc(OC)cc2)cc1`, the IC50 was 216 nM with A549; 264 nM in the assay with HCT-116; 10 nM in assay [2]; 154 nM with HeLa; above 99500 nM in [3]; 241 nM in the assay with DU-145. Further, the IC50 came to 165 nM with A2780; 162 nM in assay [4]; 307 nM in [5]; 8690 nM in the assay with PBMC; 156 nM in assay [6].
